Results published in PubChem BioAssay (NCI).
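Grown in 96-well plates, cells were treated for 48 hours with each compound at five concentrations. Insufficient inhibition: endpoint recorded as highest concentration tested. The concentration for 50% growth inhibition is given as GI50. The concentration for full growth arrest is given as TGI.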

How the values were obtained:
Assay in all cases: inhibition of tumour cell growth, NCI panel, 48 h
786-0 renal = system: 786-0 renal
A498 renal = system: A498 renal
A549 NSCLC = system: A549 NSCLC
ACHN renal = system: ACHN renal
BT-549 breast = system: BT-549 breast
CAKI-1 renal = system: CAKI-1 renal
CCRF-CEM leukemia = system: CCRF-CEM leukemia
COLO 205 colon = system: COLO 205 colon
DU-145 prostate = system: DU-145 prostate
EKVX NSCLC = system: EKVX NSCLC
HCC-2998 colon = system: HCC-2998 colon
HCT-116 colon = system: HCT-116 colon
HCT-15 colon = system: HCT-15 colon
HL-60(TB) leukemia = system: HL-60(TB) leukemia
HOP-62 NSCLC = system: HOP-62 NSCLC
HOP-92 NSCLC = system: HOP-92 NSCLC
HS 578T breast = system: HS 578T breast
HT29 colon = system: HT29 colon
IGROV1 ovarian = system: IGROV1 ovarian
K-562 leukemia = system: K-562 leukemia
KM12 colon = system: KM12 colon
LOX IMVI melanoma = system: LOX IMVI melanoma
M14 melanoma = system: M14 melanoma
MALME-3M melanoma = system: MALME-3M melanoma
MCF7 breast = system: MCF7 breast
MDA-MB-231 breast = system: MDA-MB-231 breast
MDA-MB-435 = system: MDA-MB-435
MOLT-4 leukemia = system: MOLT-4 leukemia
NCI-H226 lung = system: NCI-H226 lung
NCI-H23 lung = system: NCI-H23 lung
NCI-H460 lung = system: NCI-H460 lung
NCI-H522 lung = system: NCI-H522 lung
NCI/ADR-RES ovarian = system: NCI/ADR-RES ovarian
OVCAR-3 ovarian = system: OVCAR-3 ovarian
OVCAR-4 ovarian = system: OVCAR-4 ovarian
OVCAR-5 ovarian = system: OVCAR-5 ovarian
OVCAR-8 ovarian = system: OVCAR-8 ovarian
PC-3 prostate = system: PC-3 prostate
RPMI-8226 leukemia = system: RPMI-8226 leukemia
RXF 393 renal = system: RXF 393 renal
SF-268 CNS = system: SF-268 CNS
SF-295 CNS = system: SF-295 CNS
SF-539 CNS = system: SF-539 CNS
SK-MEL-2 melanoma = system: SK-MEL-2 melanoma
SK-MEL-28 melanoma = system: SK-MEL-28 melanoma
SK-MEL-5 melanoma = system: SK-MEL-5 melanoma
SK-OV-3 ovarian = system: SK-OV-3 ovarian
SN12C renal = system: SN12C renal
SNB-19 CNS = system: SNB-19 CNS
SNB-75 CNS = system: SNB-75 CNS
SR leukemia = system: SR leukemia
SW-620 colon = system: SW-620 colon
T-47D breast = system: T-47D breast
TK-10 renal = system: TK-10 renal
U251 CNS = system: U251 CNS
UACC-257 melanoma = system: UACC-257 melanoma
UACC-62 melanoma = system: UACC-62 melanoma
UO-31 renal = system: UO-31 renal

CCN1C(C)(C)CC(Oc2ccc(C(=O)Nc3ccc(NC(=O)Nc4cc(C(C)(C)C)on4)cc3)nc2)CC1(C)C
GI50 (786-0 renal): 1660 nM | TGI (786-0 renal): 3.52 µM | GI50 (A498 renal): 1950 nM | TGI (A498 renal): 11.6 µM | GI50 (A549 NSCLC): 2710 nM | TGI (A549 NSCLC): 7.4 µM | GI50 (ACHN renal): 2050 nM | TGI (ACHN renal): 4.37 µM | GI50 (BT-549 breast): 4.53 µM | TGI (BT-549 breast): 10.3 µM | GI50 (CAKI-1 renal): 1980 nM | TGI (CAKI-1 renal): 5.35 µM | GI50 (CCRF-CEM leukemia): 2850 nM | TGI (CCRF-CEM leukemia): 7.77 µM | GI50 (COLO 205 colon): 1830 nM | TGI (COLO 205 colon): 3.82 µM | GI50 (DU-145 prostate): 1870 nM | TGI (DU-145 prostate): 3.72 µM | GI50 (EKVX NSCLC): 3.6 µM | TGI (EKVX NSCLC): 20.9 µM | GI50 (HCC-2998 colon): 1900 nM | TGI (HCC-2998 colon): 4.17 µM | GI50 (HCT-116 colon): 1990 nM | TGI (HCT-116 colon): 3.68 µM | GI50 (HCT-15 colon): 1710 nM | TGI (HCT-15 colon): 3.72 µM | GI50 (HL-60(TB) leukemia): 2020 nM | TGI (HL-60(TB) leukemia): 4.38 µM | GI50 (HOP-62 NSCLC): 1670 nM | TGI (HOP-62 NSCLC): 3.87 µM | GI50 (HOP-92 NSCLC): 2380 nM | TGI (HOP-92 NSCLC): 8.09 µM | GI50 (HS 578T breast): 1440 nM | TGI (HS 578T breast): 6.06 µM | GI50 (HT29 colon): 1580 nM | TGI (HT29 colon): 3.86 µM | GI50 (IGROV1 ovarian): 6.86 µM | TGI (IGROV1 ovarian): 47.5 µM | GI50 (K-562 leukemia): 1690 nM | TGI (K-562 leukemia): 3.76 µM | GI50 (KM12 colon): 2910 nM | TGI (KM12 colon): 9.35 µM | GI50 (LOX IMVI melanoma): 1780 nM | TGI (LOX IMVI melanoma): 3.31 µM | GI50 (M14 melanoma): 1910 nM | TGI (M14 melanoma): 3.63 µM | GI50 (MALME-3M melanoma): 1610 nM | TGI (MALME-3M melanoma): 3.37 µM | GI50 (MCF7 breast): 2140 nM | TGI (MCF7 breast): 5.55 µM | GI50 (MDA-MB-231 breast): 2020 nM | TGI (MDA-MB-231 breast): 4.82 µM | GI50 (MDA-MB-435): 1820 nM | TGI (MDA-MB-435): 3.47 µM | GI50 (MOLT-4 leukemia): 1930 nM | TGI (MOLT-4 leukemia): 5.24 µM | GI50 (NCI-H226 lung): 11.2 µM | TGI (NCI-H226 lung): 30.7 µM | GI50 (NCI-H23 lung): 3.64 µM | TGI (NCI-H23 lung): 20.1 µM | GI50 (NCI-H460 lung): 1890 nM | TGI (NCI-H460 lung): 3.69 µM | GI50 (NCI-H522 lung): 1820 nM | TGI (NCI-H522 lung): 4.23 µM | GI50 (NCI/ADR-RES ovarian): 2480 nM | TGI (NCI/ADR-RES ovarian): > 22.6 µM | GI50 (OVCAR-3 ovarian): 1780 nM | TGI (OVCAR-3 ovarian): 3.86 µM | GI50 (OVCAR-4 ovarian): 5.23 µM | TGI (OVCAR-4 ovarian): 25.9 µM | GI50 (OVCAR-5 ovarian): 2940 nM | TGI (OVCAR-5 ovarian): 11.4 µM | GI50 (OVCAR-8 ovarian): 2290 nM | TGI (OVCAR-8 ovarian): 5.66 µM | GI50 (PC-3 prostate): 2880 nM | TGI (PC-3 prostate): 8.82 µM | GI50 (RPMI-8226 leukemia): 1960 nM | TGI (RPMI-8226 leukemia): 4.72 µM | GI50 (RXF 393 renal): 1640 nM | TGI (RXF 393 renal): 3.36 µM | GI50 (SF-268 CNS): 2390 nM | TGI (SF-268 CNS): 7.71 µM | GI50 (SF-295 CNS): 1670 nM | TGI (SF-295 CNS): 3.27 µM | GI50 (SF-539 CNS): 1150 nM | TGI (SF-539 CNS): 2620 nM | GI50 (SK-MEL-2 melanoma): 2090 nM | TGI (SK-MEL-2 melanoma): 4.89 µM | GI50 (SK-MEL-28 melanoma): 1800 nM | TGI (SK-MEL-28 melanoma): 3.63 µM | GI50 (SK-MEL-5 melanoma): 1680 nM | TGI (SK-MEL-5 melanoma): 3.22 µM | GI50 (SK-OV-3 ovarian): 6.03 µM | TGI (SK-OV-3 ovarian): 15.9 µM | GI50 (SN12C renal): 1660 nM | TGI (SN12C renal): 3.4 µM | GI50 (SNB-19 CNS): 2640 nM | TGI (SNB-19 CNS): 11.2 µM | GI50 (SNB-75 CNS): 1350 nM | TGI (SNB-75 CNS): 3.44 µM | GI50 (SR leukemia): 2280 nM | TGI (SR leukemia): 4.91 µM | GI50 (SW-620 colon): 2100 nM | TGI (SW-620 colon): 4.37 µM | GI50 (T-47D breast): 2340 nM | TGI (T-47D breast): 7.2 µM | GI50 (TK-10 renal): 5.49 µM | TGI (TK-10 renal): 14 µM | GI50 (U251 CNS): 1680 nM | TGI (U251 CNS): 3.58 µM | GI50 (UACC-257 melanoma): 2200 nM | TGI (UACC-257 melanoma): 4.02 µM | GI50 (UACC-62 melanoma): 1760 nM | TGI (UACC-62 melanoma): 3.51 µM | GI50 (UO-31 renal): 1670 nM | TGI (UO-31 renal): 4.25 µM
